According to patent US20020058049A1, “Stable ophthalmic preparation” (priority 2000, published 2002):

How the values were obtained:
[1] = Percent unoprostone isopropyl absorbed by bottle (PP vs LDPE) at three storage temperatures; type: physicochemical
Description: (§1) 0.15 wt % unoprostone isopropyl ester (a typical prostaglandin analogue) solution in an isotonic solution containing mannitol and edetate disodium is prepared. The solution also contains 0.015 wt % benzalkonium chloride as a preservative. The solution is placed in a polypropylene bottle and a polyethylene bottle, which bottles have 7.5 ml void volume, and 5 ml of the solution is placed in each bottle. The bottles have air-tight caps. The polypropylene bottle is molded from REXENE PP23M2 polypropylene and the polyethylene bottle is produced from ALATHON 2025 […] polyethylene (LDPE), which is available from DuPont. The bottles are placed in controlled environment at 40° C. and ambient humidity, and the concentration of unoprostone is periodically measured using HPLC.
Example 1 is repeated except that three different temperatures are used to store the samples. As put forth in Table 3, the percent unoprostone isopropyl absorbed by polypropylene is much lower than LDPE. This is particularly significant in that the lower absorption at higher temperatures enables the preparation of the present invention to meet current FDA stability requirements without refrigeration.

[2] = Long-term stability of unoprostone in polypropylene bottles at 25° C., 40% relative humidity; type: physicochemical; details: PP bottle
Description: as §1
The unoprostone solution is placed in the polypropylene bottles, as described in Example 1, and placed in storage at 25° C. with 40% relative humidity. The stability over time of unoprostone in the polypropylene bottles is measured.

- % Unoprostone Absorbed ([1]; LDPE bottle, 12 mo. at 5° C.): 3.11%
- % Unoprostone Absorbed ([1]; LDPE bottle, 12 mo. at 25° C.): 4.76%
- % Unoprostone Absorbed ([1]; LDPE bottle, 12 mo. at 30° C.): 5.70%
- % Unoprostone Absorbed ([1]; PP bottle, 12 mo. at 5° C.): 0.00%
- % Unoprostone Absorbed ([1]; PP bottle, 12 mo. at 25° C.): 0.98%
- % Unoprostone Absorbed ([1]; PP bottle, 12 mo. at 30° C.): 1.98%
- % Unoprostone Isopropyl (Active) ([2]; 3 mo.): 101.3%
- % Unoprostone Isopropyl (Active) ([2]; 6 mo.): 101.3%
- % Unoprostone Isopropyl (Active) ([2]; 9 mo.): 101.3%
- % Unoprostone Isopropyl (Active) ([2]; 18 mo.): 101.3%
- % Unoprostone Isopropyl (Active) ([2]; Initial): 101.3%
- degradation in concentration over time ([2]; over eighteen months): no measurable degradation
Compound: CCCCCCCC(=O)CC[C@@H]1[C@@H](C/C=C\CCCC(=O)OC(C)C)[C@@H](O)C[C@H]1O [Unoprostone, unoprostone isopropyl ester]
